{"source": "patent US6943000B2", "about": "“JNK3 modulators and methods of use” (priority 1997, dated 2005)", "type_in_all_cases": "in vivo, mouse", "key": {"hippocampal neurons [1]": {"tested_on": "hippocampal neurons", "test": "Kainate-induced neuronal damage in the hippocampus (Nissl's stain, GFAP, TUNEL, toluidine stain)", "conditions": "KA 45 mg/kg, JNK2(−/−) mice as printed"}, "hippocampal neurons [2]": {"tested_on": "hippocampal neurons", "test": "Kainate-induced neuronal damage in the hippocampus (Nissl's stain, GFAP, TUNEL, toluidine stain)", "experimental": "These experiments were performed as follows. Wild-type and JNK3 (−/−) mice were killed and fixed by transcardial perfusion of 4% paraformaldehyde and 1.5% glutaraldehyde three days after the injection of KA (30 mg/kg, i.p.). Semithin and thin sections of brain were prepared using a Vibratome and embedded in Epon. Tissue blocks were prepared using a microtome with a diamond tube for 1 μm-thick semithin sections examined by toluidine blue staining, and for ultrathin sections examined by electron microscopy. Nissl's stain was used for initial examination of damage to the hippocampus (Kluver et al., J. Neuropath. Exp. Neuro. 12:400-403, 1953). GFAP immunocytochemistry was also used to assess cell destruction in the hippocampus (Hsu et al., supra). Nissl's staining was also performed as described above. TUNEL assays, used to evaluate apoptosis, were performed using cryostat sections (50 μm) of cerebral hemispheres that were cryoprotected with sucrose. The TUNEL assay was modified from the terminal deoxynucleotidyl transferase (TdT)-mediated dUTP nick end labeling assay (Gavrieli et al., J. Cell. Biol. 119:493-501, 1992). Briefly, tissue sections, directly mounted on a salinated slide, were permeablized with 2% TRITON® X-100 (20 minutes at room temperature) and then incubated for nick end-labeling for 2 hours at 37° C. using 0.32 U/μl TdT (Boehringer Mannheim, cat# 220582) and 2 μM digoxigenin-11-dUTP (Boehringer Mannheim, cat# 1573152) in a final volume of 40 μl. The tissues were incubated with anti-digoxigenin antibody (Boehringer Mannheim, cat# 1333062) diluted 500-fold, and processed for immunocytochemistry using standard procedures (Hsu et al., supra).\nThe damage to the hippocampus caused by KA was initially examined by Nissl's stain. The KA-induced cell loss caused either a breach of staining of the pyramidal neurons in the CA3 region or a diffuse sparse staining throughout the CA1 subfield. […] Groups of small pyknotic nuclei and positively TUNEL-labeled cells were found in the hippocampal CA3 subfield devoid of Nissl's staining. […] Since the TUNEL method and the pyknosis morphology only indicated the extent of cell damage at one time point of a dynamic process, immunostaining of damage-induced GFAP was also used as an independent assessment of the extent of cell destruction in the hippocampus. Consistent with the patterns of Nissl's, toluidine, and TUNEL staining, an increased number of strongly GFAP-labeled astrocytes was found either in the hippocampal CA3 or CAl regions. Thus, a combination of Nissl's stain, GFAP immunocytochemistry, TUNEL method, and toluidine stain of semithin sections was used to classify the KA-induced damage in the mouse hippocampus.\nA total of 17 wild-type and 18 JNK3(−/−) mice were examined. The table was compiled from two sets of data. First, wild-type (n=11) and JNK3 (−/−) (n=10) mice were sacrificed on the fifth day after a single injection of KA (30 mg/kg, i.p.). Second, wild-type (n=6) and JNK3 (−/−) (n=8) mice received an injection of KA (30 mg/kg, i. p.) for five consecutive days and examined two days following the final injection. […] The ratio of no cell loss/CA3 lesion/CA3+CA1 lesion was 2/7/2 in the single-injection experiments, and 2/2/2 in the multiple injection experiments."}, "[3]": {"tested_on": "AP-1 transcriptional activity", "test": "KA-induced AP-1 transcriptional activity (luciferase assay, AP1-luc mice)", "conditions": "KA 30 mg/kg i.p.", "from_the_text": "Since the phosphorylation of c-Jun is an important initial event during the induction of AP-1 transcriptional activity (Whitemarsh et al., supra; Yang et al., supra), whether the observed attenuation of c-Jun phosphorylation would lead to decreased induction of AP-1 transcriptional activity in JNK3 (−/−) mice was examined. JNK(-1-) mice were crossed with transgenic AP-1 luciferase (AP1-luc) mice (Rincon et al., Embo. J. 13:4370-4381, 1994) and progeny back crossed. The JNK3(−/−)/API-Luc(−/+) mice were used in experiments with JNK3(+/+) mice to compare the level of KA-induced AP-1 transcriptional activity in the presence or absence of JNK3. The AP1-luc mice contain the firefly luciferase gene under the control of four copies of a consensus AP-1 binding site in the context of the minimal rat prolactin promoter. It has been established that the expression of luciferase in these mice is due to the presence of the AP-1 regulatory element.\nIn the luciferase assay, mice were sacrificed at intervals after injection of KA (30 mg/kg, i.p.), and relative luciferase activity compared with that detected in hippocampal lysates obtained from mice injected with vehicle (saline). Mice were decapitated, brains were dissected, and brain tissues were immediately lysed in buffer containing 25 mM Hepes pH 7.4, 1% TRITON®X-100, 1 mM EDTA, 1 mM phenylmethyl sulfonyl fluoride, and 10 μg/ml leupeptin (Promega, Madison, Wis.). Luciferase activity was measured as described in Rincon and Flavell (Embo. J. 13:4370-4381, 1994). The injection of KA (30 mg/kg, i.p.) caused a large induction of AP-1 transcriptional activity in the hippocampus of wild-type mice, as evidenced by the induction of luciferase activity.\nThe relative luciferase activity in the hippocampus and cerebellum prepared from wild-type (+/+) and JNK3 (−/−) mice was measured following KA injection. Each time point represents the mean of three to five (+SEM) individual animals. […]"}, "mice [4]": {"tested_on": "mice", "test": "KA-induced seizures in wild-type and JNK3(−/−) mice", "experimental": "JNK3(−/−) mice and their wild-type littermates were injected intraperitoneally (i.p.) with 30 mg/kg KA to induce seizures (Ben-Ari, supra). In wild-type mice, the administration of KA first induced “staring spells” with abnormal body posture, then progressed to head nodding (“wet-dog shakes”), fore-paw tremor, rearing, loss of postural control, and eventually, continuous convulsions. […] Wild-type and heterozygous mice developed motor symptoms of seizures, including rearing, at 30 to 40 minutes post-injection. The JNK3 (−/−) mice, in contrast, developed much milder symptoms, mainly consisting of “staring” spells and occasional myoclonic tremors. […] Further, JNK3(−/−) mice recovered from the drug administration more rapidly than wild-type mice (FIG. 7). Seizure classifications as shown in FIGS. 7 and 8 are: 1, arrest of motion; 2, myoclonic jerks of the head and neck, with brief twitching movements; 3, unilateral clonic activity; 4, bilateral forelimb tonic and clonic activity; and 5, generalized tonic-clonic activity with loss of postural tone, often resulting in death."}, "[5]": {"tested_on": "c-Jun phosphorylated at Ser-73", "test": "KA-induced phosphorylation of c-Jun in hippocampus (immunocytochemistry)", "conditions": "KA 30 mg/kg i.p., two hours after injection", "experimental": "To further define this phenomenon, the distribution of KA-induced c-Fos and c-Jun immunoreactivity along the synaptic circuit of the hippocampus was examined. In these experiments, homozygous mutant and control wild-type mice were killed and fixed by transcardial perfusion of 4% paraformaldehyde at 2 or 6 hours after the injection of KA (30 mg/kg, i.p.). Brains from both groups were removed, post-fixed for one hour, and sectioned on a Vibratome ([…]). Tissue sections were processed by immunocytochemistry to detect the expression of c-June (Santa Cruz, cat# sc-45), c-Fos (Santa Cruz, cat# sc-52), and phospho-specific c-Jun (Ser-73) (New England Biolabs, #9164S). Sections were floated in a solution of the primary antibody (diluted 200× in PBS) and incubated overnight at room temperature. Secondary antibody incubation, avidin-biotin conjugated peroxidase (Vectastain Elite ABC kit, Vector Lab.), and DAB (3, 3′-diaminobenzidine, Sigma) reactions were performed using standard procedures (Hsu et al., supra). In the absence of KA, there was no detectable c-Fos expression and only a few c-Jun-positive cells within the dentate gyrus. […]\nIn addition, there was a dynamic change of the distribution of phosphorylated c-Jun in the wild type mouse hippocampus. […] In contrast, no labeling of phosphorylated c-Jun was detected in the JNK3(−/−) mice at the same time point. […]"}, "mice [6]": {"tested_on": "mice", "test": "Pentetrazole (PTZ)-induced seizures in wild-type and JNK3(−/−) mice", "from_the_text": "Since the resistance to KA-induced seizures varied between littermates (+/+ and +/− are less resistant than −/− mice), the observed differential susceptibility cannot be attributed to a difference between mouse strains (Schauwecker and Steward, Proc. Nat. Acad. Sci. USA 94:4103-4108, 1997). However, the resistance of JNK3 deficient mice to KA-induced seizures could be due to decreased drug penetration across the blood-brain barrier or an increased GABA (gamma-aminobutyric acid) inhibitory postsynaptic potential (IPSP), or the ablation of a specific signal transduction pathway mediated by the JNK3 protein kinase. To distinguish between these possibilities, the response of JNK3 (−/−) and wild-type mice to another epileptogenic agent, pentetrazole (PTZ) (Sigma), was examined. PTZ was selected due to its ability to induce seizures by blocking the GABA-IPSPs (Ben-Ari et al., Neurosci. 6:1361-1391, 1981).\nThus, the differential susceptibility to KA toxicity in JNK3(−/−) mice can neither be explained as a consequence of poor drug delivery to the nervous system nor by potent GABA-IPSPs in the neural circuit. Furthermore, we examined the expression of the kainate-type glutamate receptor subunits GluR5-7 (Pharmingen cat. No. 60006E) by immunocytochemistry using standard methods."}, "[7]": {"conditions": "KA 30 mg/kg i.p., JNK3 genotype +/+"}, "[8]": {"conditions": "KA 30 mg/kg i.p., JNK3 genotype −/−"}, "[9]": {"conditions": "KA 30 mg/kg i.p., wild-type mice"}}, "data": [{"smiles": "C=C(C)[C@H]1CN[C@H](C(=O)O)[C@H]1CC(=O)O", "note": "[KA, kainic acid]", "values": [{"measurement": "animals with cell damage (fraction)", "setting": "hippocampal neurons [1]", "value": "2/15"}, {"measurement": "animals with cell damage", "setting": "hippocampal neurons [1]; p<0.005", "value": 13, "unit": "%"}, {"measurement": "hippocampal damage", "setting": "hippocampal neurons [2]; KA 30 mg/kg i.p., JNK3(−/−) mice (n=18)", "value": "no apparent hippocampal damage"}, {"measurement": "Including CA1 cell loss", "setting": "hippocampal neurons [2]; [7]", "value": "4 number of animals"}, {"measurement": "No perceivable cell loss", "setting": "hippocampal neurons [2]; [7]", "value": "4 number of animals"}, {"measurement": "Selective CA3 cell loss", "setting": "hippocampal neurons [2]; [7]", "value": "9 number of animals"}, {"measurement": "Including CA1 cell loss", "setting": "hippocampal neurons [2]; [8]", "value": "0 number of animals"}, {"measurement": "No perceivable cell loss", "setting": "hippocampal neurons [2]; [8]", "value": "18 number of animals"}, {"measurement": "Selective CA3 cell loss", "setting": "hippocampal neurons [2]; [8]", "value": "0 number of animals"}, {"measurement": "animals with damage of the hippocampal CA3 region", "setting": "hippocampal neurons [2]; [9]", "value": 53, "unit": "%"}, {"measurement": "animals with damage of the hippocampal CA3 region (fraction)", "setting": "hippocampal neurons [2]; [9]", "value": "9/17"}, {"measurement": "animals with massive cell loss throughout the entire hippocampal CA1 region", "setting": "hippocampal neurons [2]; [9]", "value": 24, "unit": "%"}, {"measurement": "animals with massive cell loss throughout the entire hippocampal CA1 region (fraction)", "setting": "hippocampal neurons [2]; [9]", "value": "4/17"}, {"measurement": "ratio of no cell loss/CA3 lesion/CA3+CA1 lesion", "setting": "hippocampal neurons [2]; wild-type mice, KA 30 mg/kg i.p. for five consecutive days, examined two days after final injection", "value": "2/2/2"}, {"measurement": "ratio of no cell loss/CA3 lesion/CA3+CA1 lesion", "setting": "hippocampal neurons [2]; wild-type mice, single injection of KA 30 mg/kg i.p., sacrificed on the fifth day", "value": "2/7/2"}, {"measurement": "AP-1 activity in hippocampus, wild-type compared with JNK3(−/−) mice", "setting": "[3]; 15 hours after injection", "value": "approximately four-fold greater"}, {"measurement": "AP-1 activity in hippocampus, wild-type compared with JNK3(−/−) mice", "setting": "[3]; three days after injection", "value": "more than six times higher"}, {"measurement": "time of peak luciferase activity in hippocampus", "setting": "[3]; wild-type AP1-luc mice", "value": "three days"}, {"measurement": "seizure severity", "setting": "mice [4]; KA 30 mg/kg i.p., JNK3(−/−) mice", "value": "did not develop grand mal seizures"}, {"measurement": "time at which seizure activities subsided", "setting": "mice [4]; [9]", "value": "one hour after injection"}, {"measurement": "survival", "setting": "mice [4]; KA 45 mg/kg i.p., JNK3(−/−) mice", "value": "all of the JNK3(−/−) mice survived"}, {"measurement": "mice that died from continuous tonic clonic convulsions", "setting": "mice [4]; KA 45 mg/kg i.p., wild-type mice", "value": "more than 60%"}, {"measurement": "phosphorylated c-Jun in hippocampus", "setting": "[5]; JNK3(−/−) mice", "value": "only a trace amount"}, {"measurement": "phosphorylated c-Jun in the dentate gyrus and CA3/CA4 region of the hippocampus", "setting": "[5]; wild-type mice", "value": "high level of phosphorylated c-Jun"}]}, {"smiles": "C1CCc2nnnn2CC1", "note": "[PTZ, pentetrazole]", "values": [{"measurement": "seizure severity, JNK3(−/−) mice versus wild-type littermates", "setting": "mice [6]; PTZ 30, 40, 50, 60 mg/kg i.p.", "value": "comparable severity"}, {"measurement": "time to abrupt general tonic-clonic seizures after injection", "setting": "mice [6]; PTZ i.p.", "value": "within five minutes"}]}]}
